{
  "source": "patent US20230372318A1",
  "about": "“METHODS FOR TREATING A SUBJECT HAVING MULTIPLE SYSTEM ATROPHY” (Theravance Biopharma R&D IP, LLC, priority 2022, published 2023)",
  "key": {"[1]": {"biological_target": "T1, human recombinant DAT (Homo sapiens, UniProt Q01959)", "T1 construct": "expressed in transfected cells; host or cells: CHO-K1", "T1 sequence (Q01959 whole entry)": "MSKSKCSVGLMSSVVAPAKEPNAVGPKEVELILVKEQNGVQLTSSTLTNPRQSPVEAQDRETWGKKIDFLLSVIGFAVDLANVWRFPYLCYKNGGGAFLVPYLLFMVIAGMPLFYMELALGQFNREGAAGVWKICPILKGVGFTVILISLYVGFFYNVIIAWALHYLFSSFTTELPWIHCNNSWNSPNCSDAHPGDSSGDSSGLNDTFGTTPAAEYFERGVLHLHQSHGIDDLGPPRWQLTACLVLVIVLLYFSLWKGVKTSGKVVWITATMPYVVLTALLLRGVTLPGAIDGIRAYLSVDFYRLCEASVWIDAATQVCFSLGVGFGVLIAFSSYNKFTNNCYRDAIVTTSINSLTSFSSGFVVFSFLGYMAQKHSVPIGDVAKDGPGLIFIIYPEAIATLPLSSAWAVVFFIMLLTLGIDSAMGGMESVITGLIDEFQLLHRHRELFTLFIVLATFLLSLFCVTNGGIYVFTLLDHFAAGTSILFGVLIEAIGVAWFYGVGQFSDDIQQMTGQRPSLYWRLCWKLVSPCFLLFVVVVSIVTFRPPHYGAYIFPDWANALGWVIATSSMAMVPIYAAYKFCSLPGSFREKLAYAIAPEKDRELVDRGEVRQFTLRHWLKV", "test": "Neurotransmitter uptake inhibition, [3H]-DA, hDAT cells", "assay_type": "cell-based", "conditions": "mean, 3 to 9 experiments", "excerpt": "(§1) The in vitro pharmacology of ampreloxetine at human recombinant and rat native monoamine transporters was characterized as described in Smith et al., Inter. J. Neuropsychopharmcol. (2015) 1-11; and Tsuruda et al., J. Pharmacol. Toxicol. Meth. (2010) 61:192-204. See also, e.g., U.S. Pat. Nos. 8,304,432 B2 and 8,304,433 B2. Radioligands were sourced commercially (Perkin Elmer LifeSciences or GE Healthcare Life Sciences).\n(§2) Briefly, membranes prepared from HEK293 (Human Embryonic Kidney 293) or CHO-K1 (Chinese Hamster Ovary-K1) cells stably transfected with human recombinant SERT (HEK293-hSERT), NET (HEK293-hNET), or DAT (CHO-K1-hDAT) were incubated for 1 hr at 22° C. in the absence, or presence, of 4-[2-(2,4,6-trifluorophenoxymethyl)phenyl]piperidine and [^3H]-citalopram (1.0 nM) for SERT, [^3H]-nisoxetine (2.0 nM) for NET, and [^3H]-WIN35428 (3.0 nM) for DAT in 50 mM Tris-HCl, 120 mM NaCl, 5 mM KCl, 0.025% BSA, 100 μM ascorbic acid, pH 7.4. Rat cortical membrane preparations were incubated with [^3H]-citalopram (2.0 nM) for SERT or [^3H]-nisoxetine (4.0 nM) for NET for 1 hr at 22° C. […] Binding and uptake assays were terminated by rapid filtration and radioactivity determined by liquid scintillation spectroscopy. […] Selectivity for NET (rounded to one significant figure) was determined as follows: […]"}, "[2]": {"biological_target": "T2, rat native SERT (Rattus norvegicus, UniProt P31652)", "T2 construct": "human recombinant and rat native monoamine transporters; from tissue; host or cells: rat cerebral cortex (membranes; synaptosomes)", "T2 sequence (P31652 whole entry)": "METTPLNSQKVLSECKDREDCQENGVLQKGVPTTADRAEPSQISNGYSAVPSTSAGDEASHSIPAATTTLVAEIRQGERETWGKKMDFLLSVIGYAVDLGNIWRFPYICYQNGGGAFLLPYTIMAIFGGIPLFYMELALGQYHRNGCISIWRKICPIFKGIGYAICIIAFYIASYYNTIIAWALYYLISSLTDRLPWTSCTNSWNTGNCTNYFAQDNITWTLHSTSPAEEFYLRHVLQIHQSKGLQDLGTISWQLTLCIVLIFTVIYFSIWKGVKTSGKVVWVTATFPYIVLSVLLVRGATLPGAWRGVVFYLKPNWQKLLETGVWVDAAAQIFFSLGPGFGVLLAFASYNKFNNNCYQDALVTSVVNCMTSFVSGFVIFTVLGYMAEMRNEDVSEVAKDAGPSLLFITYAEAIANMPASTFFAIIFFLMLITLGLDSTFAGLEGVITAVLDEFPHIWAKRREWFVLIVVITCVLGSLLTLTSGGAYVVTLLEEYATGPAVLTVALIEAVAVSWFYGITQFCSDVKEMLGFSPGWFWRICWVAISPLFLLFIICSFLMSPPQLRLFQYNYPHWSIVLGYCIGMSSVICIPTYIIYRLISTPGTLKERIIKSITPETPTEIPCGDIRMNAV", "test": "Radioligand binding, [3H]-citalopram, rat cortical membranes", "conditions": "mean (95% confidence intervals)", "excerpt": "as §1, §2"}, "[3]": {"biological_target": "T3, NET (Rattus norvegicus, UniProt Q63380)", "T3 construct": "from tissue; host or cells: lumbar spinal cord of orally dosed male Sprague Dawley rats", "T3 sequence (Q63380 1-617)": "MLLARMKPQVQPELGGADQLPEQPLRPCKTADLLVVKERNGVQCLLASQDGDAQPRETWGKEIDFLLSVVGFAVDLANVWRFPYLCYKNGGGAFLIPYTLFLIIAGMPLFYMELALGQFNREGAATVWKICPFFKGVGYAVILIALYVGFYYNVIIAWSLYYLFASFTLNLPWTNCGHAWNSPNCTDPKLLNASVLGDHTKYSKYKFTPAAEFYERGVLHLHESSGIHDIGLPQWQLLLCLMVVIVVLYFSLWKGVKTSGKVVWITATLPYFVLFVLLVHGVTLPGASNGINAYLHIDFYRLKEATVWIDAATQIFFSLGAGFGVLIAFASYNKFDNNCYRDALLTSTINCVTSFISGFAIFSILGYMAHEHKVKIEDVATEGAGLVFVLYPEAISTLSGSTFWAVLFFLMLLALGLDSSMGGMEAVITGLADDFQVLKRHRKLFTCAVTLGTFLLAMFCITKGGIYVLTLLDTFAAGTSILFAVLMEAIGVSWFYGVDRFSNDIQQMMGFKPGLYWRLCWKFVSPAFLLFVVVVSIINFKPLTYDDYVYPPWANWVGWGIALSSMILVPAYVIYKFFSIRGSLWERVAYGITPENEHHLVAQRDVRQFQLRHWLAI", "test": "Ex vivo transporter occupancy in rat spinal cord (NET)", "experimental": "(§3) Adult male Sprague Dawley rats (Charles River) were housed under controlled laboratory conditions (temperature at 21±1° C.) on a 12:12 hour light-dark cycle. Animals were given free access to food and water upon arrival to the facility and animals were acclimatized to their holding room for at least 48 hours. Animals were fasted but allowed free access to water for 15-18 hours prior to dosing.\n(§4) Rats (n=6/timepoint/dose level) received a single oral dose of 4-[2-(2,4,6-trifluorophenoxymethyl)phenyl]piperidine (0.3, 1, 5, 10, 30, and 60 mg/kg) and were euthanized by decapitation at specified time points (0.5, 2, 4, 6, and 8 hr for 5 mg/kg dose level; 2 hr for 0.3, 1, 10, 30, and 60 mg/kg dose levels) post-administration. Spinal cords were dissected for ex vivo transporter occupancy and PK assessments from the same animals. The spinal cord was harvested by hydraulic extrusion using phosphate-buffered saline, and the lumbar segment dissected and frozen on dry ice. The remaining spinal cord segments were collected and homogenized in water (25% w/w) for PK analysis. All samples were stored at −80° C. until analysis.\n(§5) A kinetic radioligand binding assay was used to determine NET and SERT occupancy in rat spinal cord, as described previously in Bourdet et al., J. Pharm. Exp. Ther. (2012) 341:137-145. PK/PD parameters were estimated by a compartmental modeling approach (WinNonlin Version 5.0.1, Pharsight Corporation). One- and two-compartment PK models with first-order absorption and elimination were evaluated. The one-compartment model was selected. The pharmacodynamics model was an effect compartment Emax model linked directly to the central PK compartment (WinNonlin PK Model 3, PD Model 101). Selection of models was based upon best fit in terms of visual inspection, Akaike Information Criteria, and weighted residual sum of squares using the Gauss-Newton minimization method."}, "[4]": {"biological_target": "T4, SERT (Rattus norvegicus, UniProt P31652)", "T4 construct": "from tissue; host or cells: lumbar spinal cord of orally dosed male Sprague Dawley rats", "T4 sequence (P31652 whole entry)": "as the sequence (P31652 whole entry) above", "test": "Ex vivo transporter occupancy in rat spinal cord (SERT)", "experimental": "as §3, §4, §5"}, "[5]": {"system": "plasma protein", "test": "Plasma protein binding, human", "assay_type": "in vitro ADME"}, "[6]": {"biological_target": "T5, human recombinant NET (Homo sapiens, UniProt P23975)", "T5 construct": "expressed in transfected cells; host or cells: HEK293", "T5 sequence (P23975 whole entry)": "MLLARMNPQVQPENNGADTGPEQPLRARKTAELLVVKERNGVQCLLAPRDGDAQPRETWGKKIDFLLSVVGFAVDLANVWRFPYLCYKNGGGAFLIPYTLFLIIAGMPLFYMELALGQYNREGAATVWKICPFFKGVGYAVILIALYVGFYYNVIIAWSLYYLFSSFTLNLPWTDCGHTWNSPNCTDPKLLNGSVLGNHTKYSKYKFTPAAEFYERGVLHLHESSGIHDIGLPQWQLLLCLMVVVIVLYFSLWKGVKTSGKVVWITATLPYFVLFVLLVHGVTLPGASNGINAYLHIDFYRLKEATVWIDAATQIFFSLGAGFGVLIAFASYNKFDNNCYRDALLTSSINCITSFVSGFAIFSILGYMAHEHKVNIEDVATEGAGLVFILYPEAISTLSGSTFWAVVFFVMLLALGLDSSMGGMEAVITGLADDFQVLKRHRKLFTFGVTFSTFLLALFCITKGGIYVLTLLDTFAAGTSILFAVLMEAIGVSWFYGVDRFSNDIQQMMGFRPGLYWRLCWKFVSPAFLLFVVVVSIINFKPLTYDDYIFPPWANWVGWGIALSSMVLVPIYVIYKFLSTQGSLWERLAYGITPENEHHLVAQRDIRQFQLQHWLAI", "test": "Radioligand binding, [3H]-nisoxetine, HEK293-hNET membranes", "conditions": "mean (95% confidence intervals)", "excerpt": "as §1, §2"}, "[7]": {"biological_target": "T1, human recombinant DAT", "test": "Radioligand binding, [3H]-WIN35428, CHO-K1-hDAT membranes", "conditions": "mean", "excerpt": "as §1, §2"}, "[8]": {"test": "Rat oral pharmacokinetics, one-compartment PK/PD model", "assay_type": "in vivo", "experimental": "as §3, §4, §5"}, "[9]": {"biological_target": "T6, human recombinant SERT (Homo sapiens, UniProt P31645)", "T6 construct": "expressed in transfected cells; host or cells: HEK293", "T6 sequence (P31645 whole entry)": "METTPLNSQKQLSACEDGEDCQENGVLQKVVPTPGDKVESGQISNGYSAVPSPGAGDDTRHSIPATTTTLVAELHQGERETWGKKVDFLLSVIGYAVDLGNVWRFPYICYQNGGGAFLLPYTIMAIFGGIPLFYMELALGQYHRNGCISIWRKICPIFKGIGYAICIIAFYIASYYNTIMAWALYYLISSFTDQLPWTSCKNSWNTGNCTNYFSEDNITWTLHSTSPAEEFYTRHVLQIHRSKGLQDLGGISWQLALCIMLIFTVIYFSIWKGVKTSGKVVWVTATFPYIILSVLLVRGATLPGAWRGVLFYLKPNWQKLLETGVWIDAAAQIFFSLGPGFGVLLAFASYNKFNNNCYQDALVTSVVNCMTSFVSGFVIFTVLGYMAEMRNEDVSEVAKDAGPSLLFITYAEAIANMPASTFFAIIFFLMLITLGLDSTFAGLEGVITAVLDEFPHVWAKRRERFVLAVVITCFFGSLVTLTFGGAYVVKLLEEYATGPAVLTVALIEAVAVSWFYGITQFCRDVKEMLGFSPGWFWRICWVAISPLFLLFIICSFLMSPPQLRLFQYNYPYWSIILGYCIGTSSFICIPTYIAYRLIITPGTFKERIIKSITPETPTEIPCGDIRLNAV", "test": "Radioligand binding, [3H]-citalopram, HEK293-hSERT membranes", "conditions": "mean (95% confidence intervals)", "excerpt": "as §1, §2"}, "[10]": {"system": "healthy subjects", "conditions": "single dose up to 50 mg and multiple doses up to 20 mg once per day; cited from earlier work"}, "[11]": {"system": "subjects with symptomatic nOH", "conditions": "cited from earlier work"}, "[12]": {"biological_target": "T7, rat native DAT (Rattus norvegicus, UniProt P23977)", "T7 construct": "human recombinant and rat native monoamine transporters; from tissue; host or cells: rat striatum (synaptosomes)", "T7 sequence (P23977 whole entry)": "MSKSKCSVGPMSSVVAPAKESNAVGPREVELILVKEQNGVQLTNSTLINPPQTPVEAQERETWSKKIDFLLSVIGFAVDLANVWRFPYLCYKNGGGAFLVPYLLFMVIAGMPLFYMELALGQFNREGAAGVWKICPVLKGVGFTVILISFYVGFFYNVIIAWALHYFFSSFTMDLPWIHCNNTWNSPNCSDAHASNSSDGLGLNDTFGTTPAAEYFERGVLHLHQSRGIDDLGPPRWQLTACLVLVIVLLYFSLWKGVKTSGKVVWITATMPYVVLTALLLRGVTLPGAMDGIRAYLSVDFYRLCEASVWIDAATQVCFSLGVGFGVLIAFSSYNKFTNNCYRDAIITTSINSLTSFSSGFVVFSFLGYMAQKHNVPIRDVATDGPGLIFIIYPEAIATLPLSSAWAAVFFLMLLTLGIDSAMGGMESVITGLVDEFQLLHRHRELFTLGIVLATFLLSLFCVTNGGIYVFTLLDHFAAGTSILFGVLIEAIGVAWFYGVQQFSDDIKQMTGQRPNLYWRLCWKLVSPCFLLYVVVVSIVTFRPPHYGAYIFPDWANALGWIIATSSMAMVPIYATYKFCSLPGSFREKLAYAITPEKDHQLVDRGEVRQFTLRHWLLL", "test": "[3H]-DA uptake inhibition, rat striatal synaptosomes", "assay_type": "biochemical", "conditions": "mean", "excerpt": "as §1, §2"}, "[13]": {"biological_target": "T8, rat native NET (Rattus norvegicus, UniProt Q63380)", "T8 construct": "human recombinant and rat native monoamine transporters; from tissue; host or cells: rat cerebral cortex (membranes; synaptosomes)", "T8 sequence (Q63380 1-617)": "as the sequence (Q63380 1-617) above", "test": "Radioligand binding, [3H]-nisoxetine, rat cortical membranes", "conditions": "mean (95% confidence intervals)", "excerpt": "as §1, §2"}, "[14]": {"conditions": "rat, single oral dose, effect compartment PK/PD model"}, "[15]": {"conditions": "rat, central PK compartment to effect compartment"}},
  "data": [
    {"smiles": "Fc1cc(F)c(OCc2ccccc2C2CCNCC2)c(F)c1", "note": "[Ampreloxetine, 4-[2-(2,4,6-trifluorophenoxymethyl)phenyl]piperidine]", "values": [
      {"measurement": "Neurotransmitter Uptake Inhibition: pIC50, DAT", "setting": "[1]", "value": 6.8},
      {"measurement": "Transporter Binding: pKi, SERT", "setting": "[2]", "value": "8.5 (8.3, 8.6)"},
      {"measurement": "EC50", "setting": "[3]; projected from rat EC50 accounting for species differences in plasma protein binding", "value": 17.1, "unit": "nM"},
      {"measurement": "EC50, plasma concentration associated with 50% NET occupancy", "setting": "[3]; rat spinal cord, oral dose", "value": 11.7, "unit": "ng/mL"},
      {"measurement": "Emax, maximal NET occupancy in spinal cord", "setting": "[3]; [14]", "value": 92.0, "unit": "% occupancy"},
      {"measurement": "keo, first-order equilibration rate constant, NET", "setting": "[3]; [15]", "value": 1.78, "unit": "h⁻¹"},
      {"measurement": "EC50, plasma concentration associated with 50% SERT occupancy", "setting": "[4]; rat spinal cord, oral dose", "value": 50.8, "unit": "ng/mL"},
      {"measurement": "Emax, maximal SERT occupancy in spinal cord", "setting": "[4]; [14]", "value": 79.0, "unit": "% occupancy"},
      {"measurement": "keo, first-order equilibration rate constant, SERT", "setting": "[4]; [15]", "value": 11.0, "unit": "h⁻¹"},
      {"measurement": "Plasma protein binding", "setting": "[5]", "value": 79.1, "unit": "%"},
      {"measurement": "Transporter Binding: pKi, NET", "setting": "[6]", "value": "8.8 (8.8, 8.9)"},
      {"measurement": "Transporter Binding: pKi, DAT", "setting": "[7]", "value": 6.7},
      {"measurement": "V/F, volume of the central compartment divided by oral bioavailability", "setting": "[8]", "value": 54.8, "unit": "L/kg"},
      {"measurement": "k01, first-order absorption rate constant", "setting": "[8]", "value": 0.777, "unit": "h⁻¹"},
      {"measurement": "k10, elimination rate constant from the central compartment", "setting": "[8]", "value": 0.319, "unit": "h⁻¹"},
      {"measurement": "Transporter Binding: pKi, SERT", "setting": "[9]", "value": "8.5 (8.5, 8.6)"},
      {"measurement": "Safety and tolerability", "setting": "[10]", "value": "generally well tolerated"},
      {"measurement": "Improvement in standing time", "setting": "[11]; Part A, 4 hours after dosing at 10 mg", "value": "approximately 100 seconds"},
      {"measurement": "Dose response of single ascending doses", "setting": "[11]; Part A, up to 20 mg", "value": "no dose response was observed"},
      {"measurement": "SBP following 3 minutes of standing", "setting": "[11]; Part B, up to 15 mg, 4- and 7-hours post-dose", "value": "sustained increase in SBP over baseline"},
      {"measurement": "Improvement from baseline of at least 2 points in OHSA #1 score", "setting": "[11]; Part C, open-label 3-20 mg once-daily up to 20 weeks", "value": "A large proportion of subjects met this endpoint"},
      {"measurement": "Neurotransmitter Uptake Inhibition: pIC50, DAT", "setting": "[12]", "value": 6.9},
      {"measurement": "Transporter Binding: pKi, NET", "setting": "[13]", "value": "8.7 (8.5, 8.9)"}
    ]}
  ]
}
